# Columns and labels:
# Staphylococcus aureus [1] = test: Antibacterial activity against methicillin-sensitive Staphylococcus aureus ATCC 29213 by agar dilution method; assay type: functional
# Escherichia coli [2] = test: Antibacterial activity against extended-spectrum beta-lactamase-negative Escherichia coli 09-20 by agar dilution method; assay type: functional
# Citrobacter freundii = test: Antibacterial activity against Citrobacter freundii ATCC 43864 by agar dilution method; assay type: functional
# Enterococcus faecalis [3] = test: Antibacterial activity against vancomycin-resistant Enterococcus faecalis ATCC 51299 by agar dilution method; assay type: functional
# Enterococcus faecalis [4] = test: Antibacterial activity against vancomycin-resistant Enterococcus faecalis 09-9 by agar dilution method; assay type: functional
# Klebsiella aerogenes = test: Antibacterial activity against Enterobacter aerogenes 45102 by agar dilution method; assay type: functional
# Escherichia coli [5] = test: Antibacterial activity against extended-spectrum beta-lactamase-positive Escherichia coli 09-1 by agar dilution method; assay type: functional
# Staphylococcus aureus [6] = test: Antibacterial activity against methicillin-resistant Staphylococcus aureus ATCC 33591 by agar dilution method; assay type: functional
# Staphylococcus aureus [7] = test: Antibacterial activity against methicillin-resistant Staphylococcus aureus 09-13 by agar dilution method; assay type: functional
# Klebsiella pneumoniae [8] = test: Antibacterial activity against Klebsiella pneumoniae ATCC BAA-2146 expressing NDM-1 by agar dilution method; assay type: functional
# Enterococcus faecalis [9] = test: Antibacterial activity against vancomycin-sensitive Enterococcus faecalis ATCC 29212 by agar dilution method; assay type: functional
# Enterococcus faecium [10] = test: Antibacterial activity against vancomycin-sensitive Enterococcus faecium 09-10 by agar dilution method; assay type: functional
# Salmonella typhi = test: Antibacterial activity against Salmonella typhi H901 by agar dilution method; assay type: functional, Salmonella enterica subsp. enterica serovar Typhi; conditions: Salmonella enterica
# Proteus vulgaris = test: Antibacterial activity against Proteus vulgaris ATCC 29905 by agar dilution method; assay type: functional
# [11] = test system: Staphylococcus epidermidis; test: Antibacterial activity against methicillin-sensitive Staphylococcus epidermidis 09-9 by agar dilution method; assay type: functional
# Enterobacter cloacae = test: Antibacterial activity against Enterobacter cloacae 45301 by agar dilution method; assay type: functional
# Pseudomonas aeruginosa [12] = test: Antibacterial activity against Pseudomonas aeruginosa PAO1 by agar dilution method; assay type: functional
# Enterococcus faecalis [13] = test: Antibacterial activity against vancomycin-sensitive Enterococcus faecalis 09-8 by agar dilution method; assay type: functional
# Klebsiella pneumoniae [14] = test: Antibacterial activity against extended-spectrum beta-lactamase-negative Klebsiella pneumoniae 09-8 by agar dilution method; assay type: functional
# Klebsiella pneumoniae [15] = test: Antibacterial activity against extended-spectrum beta-lactamase-positive Klebsiella pneumoniae ATCC 700603 by agar dilution method; assay type: functional
# Escherichia coli [16] = test: Antibacterial activity against extended-spectrum beta-lactamase-negative Escherichia coli ATCC 25922 by agar dilution method; assay type: functional
# Enterococcus faecium [17] = test: Antibacterial activity against vancomycin-resistant Enterococcus faecium 05-8 by agar dilution method; assay type: functional
# Proteus mirabilis = test: Antibacterial activity against Proteus mirabilis 09-1 by agar dilution method; assay type: functional
# Staphylococcus aureus [18] = test: Antibacterial activity against methicillin-sensitive Staphylococcus aureus 15 by agar dilution method; assay type: functional
# [19] = test system: Staphylococcus epidermidis; test: Antibacterial activity against methicillin-sensitive Staphylococcus epidermidis ATCC 12228 by agar dilution method; assay type: functional
# Pseudomonas aeruginosa [20] = test: Antibacterial activity against Pseudomonas aeruginosa ATCC 27853 by agar dilution method; assay type: functional
# Klebsiella pneumoniae [21] = test: Antibacterial activity against extended-spectrum beta-lactamase-positive Klebsiella pneumoniae 09-25 by agar dilution method; assay type: functional
# Pseudomonas aeruginosa [22] = test: Antibacterial activity against Pseudomonas aeruginosa 09-14 by agar dilution method; assay type: functional
# Escherichia coli [23] = test: Antibacterial activity against extended-spectrum beta-lactamase-negative Escherichia coli 1515 by agar dilution method; assay type: functional
# [24] = test system: Acinetobacter calcoaceticus; test: Antibacterial activity against Acinetobacter calcoaceticus ATCC 19606 by agar dilution method; assay type: functional
# Enterococcus faecium [25] = test: Antibacterial activity against vancomycin-resistant Enterococcus faecium ATCC 700221 by agar dilution method; assay type: functional
# Staphylococcus aureus [26] = test: Antibacterial activity against methicillin-sensitive Staphylococcus aureus 09-6 by agar dilution method; assay type: functional
# Providencia rettgeri = test: Antibacterial activity against Providencia rettgeri ATCC 31052 by agar dilution method; assay type: functional
# [27] = test system: Staphylococcus epidermidis; test: Antibacterial activity against methicillin-resistant Staphylococcus epidermidis 09-3 by agar dilution method; assay type: functional
# [28] = Cytotoxicity against HEK293T cells after 48 hrs by MTS assay; assay type: cell-based, HEK-293T; conditions: human
# Morganella morganii = test: Antibacterial activity against Morganella morganii ATCC 25830 by agar dilution method; assay type: functional
# Klebsiella pneumoniae [29] = test: Antibacterial activity against extended-spectrum beta-lactamase-negative Klebsiella pneumoniae 7 by agar dilution method; assay type: functional
# Serratia marcescens = test: Antibacterial activity against Serratia marcescens 41002 by agar dilution method; assay type: functional
Structure (SMILES),MIC (Staphylococcus aureus [1]),MIC (Escherichia coli [2]),MIC (Citrobacter freundii),MIC (Enterococcus faecalis [3]),MIC (Enterococcus faecalis [4]),MIC (Klebsiella aerogenes),MIC (Escherichia coli [5]),MIC (Staphylococcus aureus [6]),MIC (Staphylococcus aureus [7]),MIC (Klebsiella pneumoniae [8]),MIC (Enterococcus faecalis [9]),MIC (Enterococcus faecium [10]),MIC (Salmonella typhi),MIC (Proteus vulgaris),MIC [11],MIC (Enterobacter cloacae),MIC (Pseudomonas aeruginosa [12]),MIC (Enterococcus faecalis [13]),MIC (Klebsiella pneumoniae [14]),MIC (Klebsiella pneumoniae [15]),further results
CCNC(=N)c1ccc2cc(-c3ccc(Oc4ccc(-c5cc6ccc(C(=N)NCC)cc6[nH]5)cc4)cc3)[nH]c2c1,2 µg/mL,64 µg/mL,128 µg/mL,2 µg/mL,1 to 8 µg/mL,64 µg/mL,64 µg/mL,1 µg/mL,1 µg/mL,128 µg/mL,2 µg/mL,16 µg/mL,64 µg/mL,128 µg/mL,1 µg/mL,64 µg/mL,> 128 µg/mL,2 µg/mL,64 µg/mL,64 µg/mL,MIC (Escherichia coli [16]): 64 µg/mL; MIC (Enterococcus faecium [17]): 4 µg/mL; MIC (Proteus mirabilis): 128 µg/mL; MIC (Staphylococcus aureus [18]): 1 µg/mL; MIC [19]: 1 µg/mL; MIC (Pseudomonas aeruginosa [20]): 128 µg/mL; MIC (Klebsiella pneumoniae [21]): 64 µg/mL; MIC (Pseudomonas aeruginosa [22]): 128 µg/mL; MIC (Escherichia coli [23]): 64 µg/mL; MIC [24]: > 128 µg/mL; MIC (Enterococcus faecium [25]): 2 µg/mL; MIC (Staphylococcus aureus [26]): 2 µg/mL; MIC (Providencia rettgeri): 128 µg/mL; MIC [27]: 1 µg/mL; CC50 at 48 h [28]: 36.3 µg/mL; MIC (Morganella morganii): 128 µg/mL; MIC (Klebsiella pneumoniae [29]): 128 µg/mL; MIC (Serratia marcescens): 128 µg/mL
CC1CC(C)CN(C(=N)c2ccc3cc(-c4ccc(Oc5ccc(-c6cc7ccc(C(=N)N8CC(C)CC(C)C8)cc7[nH]6)cc5)cc4)[nH]c3c2)C1 (stereo unspecified),64 µg/mL,> 128 µg/mL,> 128 µg/mL,64 µg/mL,64 µg/mL,> 128 µg/mL,> 128 µg/mL,64 µg/mL,16 µg/mL,> 128 µg/mL,128 µg/mL,128 µg/mL,> 128 µg/mL,> 128 µg/mL,64 µg/mL,> 128 µg/mL,> 128 µg/mL,64 µg/mL,> 128 µg/mL,> 128 µg/mL,MIC (Escherichia coli [16]): > 128 µg/mL; MIC (Enterococcus faecium [17]): > 128 µg/mL; MIC (Proteus mirabilis): > 128 µg/mL; MIC (Staphylococcus aureus [18]): 64 µg/mL; MIC [19]: 16 µg/mL; MIC (Pseudomonas aeruginosa [20]): > 128 µg/mL; MIC (Klebsiella pneumoniae [21]): > 128 µg/mL; MIC (Pseudomonas aeruginosa [22]): > 128 µg/mL; MIC (Escherichia coli [23]): > 128 µg/mL; MIC [24]: > 128 µg/mL; MIC (Enterococcus faecium [25]): 128 µg/mL; MIC (Staphylococcus aureus [26]): 64 µg/mL; MIC (Providencia rettgeri): > 128 µg/mL; MIC [27]: 16 µg/mL; CC50 at 48 h [28]: 2.6 µg/mL; MIC (Morganella morganii): > 128 µg/mL; MIC (Klebsiella pneumoniae [29]): > 128 µg/mL; MIC (Serratia marcescens): > 128 µg/mL

# Reference: ChEMBL document CHEMBL4002623, “Synthesis and in vitro activity of dicationic indolyl diphenyl ethers as novel potent antibiotic agents against drug-resistant bacteria” (Bioorg Med Chem Lett, 2017)
